Drawing on patent US20250049765A1, “BICYCLO [3.2.0] HEPTANE BIS(AMIDE) RXFP1 AGONISTS” (BRISTOL-MYERS SQUIBB COMPANY, priority 2021, published 2025), this text covers EC50 and first-phase pharmacokinetic half-life for 6 compounds.

In one series the target is human RXFP1 (Homo sapiens (Human), UniProt Q9HBX9). The experiment in a line: hRXFP1 HEK293 cAMP assay. The series is classed as cell-based. To be noted: HEK293 cells stably expressing human RXFP1; 30 min at room temperature; HTRF cAMP. Here is the method: RXFP1 Cyclic Adenosine Monophosphate (CAMP) Assays. Human embryonic kidney cells 293 (HEK293) cells and HEK293 cells stably expressing human RXFP1, were cultured in MEM medium supplemented with 10% qualified FBS, and 300 μg/ml hygromycin (Life Technologies). Cells were dissociated and suspended in assay buffer. The assay buffer was HBSS buffer (with calcium and magnesium) containing 20 mM HEPES, 0.05% BSA, and 0.5 mM IBMX. Cells (3000 cells per well, except 1500 cell per well for HEK293 cells stably expressing human RXFP1) were added to 384-well Proxiplates (Perkin-Elmer). Cells were immediately treated with test compounds in DMSO (2% final) at final concentrations in the range of 0.010 nM to 50 μM. Cells were incubated for 30 min at room temperature. The level of intracellular cAMP was determined using the HTRF HiRange CAMP assay reagent kit (Cisbio) according to manufacturer's instructions. Solutions of cryptate conjugated anti-cAMP and d2 fluorophore-labelled cAMP were made in a supplied lysis buffer separately. Upon completion of the reaction, the cells were lysed with equal volume of the d2-cAMP solution and anti-cAMP solution. After a 1 h room temperature incubation, time-resolved fluorescence intensity was measured using the Envision (Perkin-Elmer) at 400 nm excitation and dual emission at 590 nm and 665 nm. A calibration curve was constructed with an external cAMP standard at concentrations ranging from 2.7 μM to 0.1 μM by plotting the fluorescent intensity ratio from 665 nm emission to the intensity from the 590 nm emission against cAMP concentrations. The potency and activity of a compound to […] cAMP production was then determined by fitting to a 4-parametric logistic equation from a plot of cAMP level versus compound concentrations.
The examples disclosed below were tested in the human RXFP1 (hRXFP1) HEK293 cAMP assay described above and found to have agonist activity. Table A lists EC50 values in the hRXFP1 HEK293 cAMP assay measured for the examples.

The conditions of series [1]: intravenous (IV) formulation; cited from earlier work.

Chain of human RXFP1 (Q9HBX9 whole entry): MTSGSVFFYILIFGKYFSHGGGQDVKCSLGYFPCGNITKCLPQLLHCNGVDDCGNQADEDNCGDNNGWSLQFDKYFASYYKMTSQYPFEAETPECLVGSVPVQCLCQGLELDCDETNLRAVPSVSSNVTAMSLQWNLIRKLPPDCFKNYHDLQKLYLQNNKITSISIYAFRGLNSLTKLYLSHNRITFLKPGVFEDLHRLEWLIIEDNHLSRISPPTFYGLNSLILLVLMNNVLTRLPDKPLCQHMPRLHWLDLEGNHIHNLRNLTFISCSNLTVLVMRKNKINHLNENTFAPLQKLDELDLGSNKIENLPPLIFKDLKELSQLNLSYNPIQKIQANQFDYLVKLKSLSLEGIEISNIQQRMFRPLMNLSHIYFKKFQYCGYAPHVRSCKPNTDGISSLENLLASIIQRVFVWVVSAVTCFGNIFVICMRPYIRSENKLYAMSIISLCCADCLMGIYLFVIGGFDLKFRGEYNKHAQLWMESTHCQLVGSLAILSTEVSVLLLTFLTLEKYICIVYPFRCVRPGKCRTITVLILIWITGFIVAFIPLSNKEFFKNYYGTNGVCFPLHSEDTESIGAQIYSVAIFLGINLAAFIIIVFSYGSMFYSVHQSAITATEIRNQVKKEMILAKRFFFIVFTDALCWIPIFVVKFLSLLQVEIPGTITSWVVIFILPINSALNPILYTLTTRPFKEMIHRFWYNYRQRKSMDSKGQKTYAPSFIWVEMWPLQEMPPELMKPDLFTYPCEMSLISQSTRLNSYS

On to `COc1ccc(-c2cc(C(=O)O)ccc2F)cc1C(=O)N[C@H]1[C@@H]2CCC[C@@H]2[C@H]1C(=O)Nc1ccc(F)c(C(F)(F)F)c1` [Example 1, 6-fluoro-3′-(((1S,5R,6S,7R)-7-((4-fluoro-3-(trifluoromethyl)phenyl)carbamoyl)bicyclo[3.2.0]heptan-6-yl)carbamoyl)-4′-methoxy-[1,1′-biphenyl]-3-carboxylic acid], for which, at human RXFP1, the EC50 (as a rule, the midpoint of the concentration-response curve) turned out to be 1190 nM. At human RXFP1, `COc1ccc(C#CCO)cc1C(=O)N[C@H]1[C@@H]2CCC[C@@H]2[C@H]1C(=O)Nc1ccc(F)c(C(F)(F)F)c1` [Example 2, (1R,5S,6R,7S)—N-(4-fluoro-3-(trifluoromethyl)phenyl)-7-(5-(3-hydroxyprop-1-yn-1-yl)-2-methoxybenzamido) bicyclo[3.2.0]heptane-6-carboxamide] showed a concentration giving a half-maximal response (EC50) of 823 nM. Consider `COc1ccc(C2=NOC3CC(O)CC23)cc1C(=O)NC1C2CCCC2C1C(=O)Nc1ccc(F)c(C(F)(F)F)c1` [Example 3, (1R,5S,6R,7S)-N-(4-fluoro-3-(tri-fluoromethyl)-phenyl)-7-(5-(5-hydroxy-3a,5,6,6a-tetrahydro-4H-cyclopenta[d]isox-azol-3-yl)-2-meth-oxybenzamido)-bicyclo[3.2.0] heptane-6-carbox-amide], for which a half-maximal response at human RXFP1 (EC50) required 916 nM. In turn, `COc1ccc(C2=NOC(CO)C2)cc1C(=O)NC1C2CCCC2C1C(=O)Nc1ccc(F)c(C(F)(F)F)c1` [Example 5, (1R,5S,6R,7S)-N-(4-fluoro-3-(tri-fluoromethyl)-phenyl)-7-(5-(5-(hydroxymethyl)-4,5-dihydroisox-azol-3-yl)-2-meth-oxybenzamido)-bicyclo[3.2.0] heptane-6-carbox-amide] yielded an EC50 on human RXFP1 of 2230 nM.

`COc1ccc(-c2cc(C(OC(=O)Nc3ccccc3)C(=O)O)ccc2F)cc1C(=O)N[C@H]1[C@@H]2CCC[C@@H]2[C@H]1C(=O)Nc1ccc(F)c(C(F)(F)F)c1` (stereo partly drawn) [Example 7, 2-(6-fluoro-3′-(((1S,5R,6S,7R)-7-((4-fluoro-3-(trifluoromethyl)phenyl)carbamoyl)bicyclo[3.2.0]heptan-6-yl)carbamoyl)-4′-methoxy-[1,1′-biphenyl]-3-yl)-2-((phenylcarbamoyl)oxy) acetic acid] registered a concentration giving a half-maximal response (EC50) on human RXFP1 of 12 nM. As to Serelaxin, the first-phase pharmacokinetic half-life in series [1] is 5.4 min.
